One assay addresses T1, CCR2 (Homo sapiens, UniProt P41597).
T1 construct: host or cells: THP-1 cells
T1 sequence (P41597 1-360 isoform P41597-2): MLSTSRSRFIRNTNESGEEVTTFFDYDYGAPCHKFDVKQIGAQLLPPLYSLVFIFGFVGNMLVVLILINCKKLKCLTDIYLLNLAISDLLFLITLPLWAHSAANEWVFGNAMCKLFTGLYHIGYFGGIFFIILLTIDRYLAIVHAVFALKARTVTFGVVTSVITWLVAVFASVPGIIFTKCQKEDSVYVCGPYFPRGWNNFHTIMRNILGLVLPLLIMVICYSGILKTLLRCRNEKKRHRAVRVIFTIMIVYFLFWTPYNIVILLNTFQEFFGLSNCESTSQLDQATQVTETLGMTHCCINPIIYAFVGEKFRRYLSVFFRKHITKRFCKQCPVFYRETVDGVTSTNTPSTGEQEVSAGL
In words: MCP-1 Receptor Binding Assay in THP-1 Cells. The following applies: THP-1 cells, 0.5 nM 125I labeled MCP-1, 2 hours at 30° C.; read-out: Inhibition of MCP-1 Binding IC50. In a few lines:
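Whole THP-1 cells incubated 2 h at 30° C with 0.5 nM 125I-MCP-1 and varying compound concentrations; bound radioactivity harvested on filters and counted by scintillation. Nonspecific binding with 1 μM cold MCP-1; IC50 for inhibition of binding versus vehicle.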

For assay [1], the system named is MCP-1 induced calcium ion influx in THP-1 cells. In words: MCP-1 Induced Calcium Mobilization in THP-1 Cells. Type of assay: cell-based. The conditions noted are these: for IC50: 0.2 μM MCP-1, FLIPR, read-out: Inhibition of MCP-1 Induced Calcium Ion Influx IC50. In outline:
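Fluo-3-loaded (5 μM, 45 min) THP-1 cells preincubated 15 min with compound. Calcium change after 0.2 μM MCP-1 addition read by FLIPR relative to vehicle; IC50 values derived.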
In general terms: Calcium flux is commonly read through the fluorescence of an indicator in the cells.

Assay [2] deals with MCP-1 induced chemotaxis of THP-1 cells. The assay can be described thus: MCP-1 Induced Chemotaxis in THP-1 Cells. Type of assay: cell-based. The conditions noted are these: Homo sapiens, MCP-1 0.01 μg/mL, 3 hours at 37° C., read-out: Inhibition of MCP-1 Induced Chemotaxis IC50. The method, then:
MCP-1 induced chemotaxis was run in a 24-well chemotaxis chamber. MCP-1 (0.01 μg/mL) was added to the lower chamber and 100 μL of THP-1 cells (1×10^7 cell/mL) was added to the top chamber. Varying concentrations of test compound were added to the top and bottom chambers. Cells were allowed to chemotax for 3 hours at 37° C. and 5% CO2. An aliquot of the cells that had migrated to the bottom chamber was taken and counted then compared to vehicle.
Table 3 lists IC50 values for inhibition of MCP-1 induced chemotaxis.

Where [3] appears, read: Homo sapiens, THP-1, THP-1 cells.

The structures appear in SMILES notation. Where two headings read alike, the source gives them in different places.

For the compound `COc1ccc(C2CCN(CC(CO)C3CCN(C(=O)/C=C/c4ccc(Cl)c(Cl)c4)CC3)CC2)cc1` (stereo not drawn) [Compound 43], the IC50 (usually the point on the concentration scale where inhibition reaches its midpoint) stood at 590 nM at CCR2, 180 nM in assay [1] (setting [3]) and 90 nM in assay [2].
Regarding `COc1ccc(C2CCN(CC(CO)C3CCN(C(=O)/C=C/c4cc(F)cc(F)c4)CC3)CC2)cc1` (stereo not drawn) [Compound 45], the IC50 on CCR2 was 120 nM; in assay [1] (setting [3]), 150 nM; in assay [2] it was 170 nM.
As to `O=C(O)C(CC1CCN(C(=O)C=Cc2ccc(Cl)c(Cl)c2)CC1)N1CCC(c2c[nH]c3ccccc23)CC1` (stereo not drawn) [Compound 60, 3-{1-[3-(3,4-dichloro-phenyl)-acryloyl]-piperidin-4-yl}-2-[4-(1H-indol-3-yl)-piperidin-1-yl]-propionic acid], the IC50 on CCR2 turned out to be 310 nM; in assay [1] (setting [3]), 380 nM; in assay [2] it was 290 nM.
For `O=C(O)C(CC1CCN(C(=O)C=Cc2cc(F)cc(F)c2)CC1)N1CCC(c2c[nH]c3ccccc23)CC1` (stereo not drawn) [Compound 61, 3-{1-[3-(3,5-difluoro-phenyl)-acryloyl]-piperidin-4-yl}-2-[4-(1H-indol-3-yl)-piperidin-1-yl]-propionic acid], the IC50 at CCR2 was found to be 830 nM; in assay [1] (setting [3]), 2800 nM; in assay [2], 240 nM.
`COc1ccc(C2CCN(CC(N)C3CCN(C(=O)/C=C/c4cc(F)c(F)c(F)c4)CC3)CC2)cc1` (stereo not drawn) [Compound 65]: the concentration for half-maximal inhibition (IC50) on CCR2 was 80 nM; in assay [1] (setting [3]) it was 40 nM; in assay [2], 250 nM.
For `COC(=O)NC(CN1CCC(c2ccc(OC)cc2)CC1)C1CCN(C(=O)C=Cc2cc(F)c(F)c(F)c2)CC1` (stereo not drawn) [Compound 67, (2-[4-(4-methoxy-phenyl)-piperidin-1-yl]-1-{1-[3-(3,4,5-trifluoro-phenyl)-acryloyl]-piperidin-4-yl}-ethyl)-carbamic acid methyl ester] the same measures were 240 nM, 300 nM and 700 nM.
Turning to `O=C(/C=C/c1cc(F)c(F)c(F)c1)N1CCC(O)(C(O)CN2CCC(c3c[nH]c4ccccc34)CC2)CC1` (stereo not drawn) [Compound 70], the IC50 on CCR2 amounted to 180 nM; in assay [1] (setting [3]) it was 80 nM; in assay [2] it was 10 nM.
Regarding `O=C(/C=C/c1cc(Cl)cc(Cl)c1)N1CCC(O)(C(O)CN2CCC(c3c[nH]c4ccccc34)CC2)CC1` (stereo not drawn) [Compound 73], the 50% inhibitory concentration (IC50) on CCR2 turned out to be 130 nM; in assay [1] (setting [3]), 1 nM; in assay [2], 30 nM.
For `O=C(/C=C/c1cc(F)cc(Cl)c1)N1CCC(O)(C(O)CN2CCC(c3c[nH]c4ccccc34)CC2)CC1` (stereo not drawn) [Compound 74], the half-maximal inhibitory concentration (IC50) on CCR2 is 40 nM; in assay [1] (setting [3]), 2 nM; in assay [2], 80 nM.
`O=C(/C=C/c1ccc(Cl)c(Cl)c1)N1CCC(O)(C(O)CN2CCC(c3c[nH]c4ccccc34)CC2)CC1` (stereo not drawn) [Compound 75]: the IC50 was found to be 350 nM on CCR2, 5 nM in assay [1] (setting [3]) and 30 nM in assay [2].
As to `O=C(/C=C/c1ccc(F)c(F)c1)N1CCC(O)(C(O)CN2CCC(c3c[nH]c4ccccc34)CC2)CC1` (stereo not drawn) [Compound 78], the 50% inhibitory concentration (IC50) on CCR2 came out at 370 nM; in assay [1] (setting [3]), 40 nM; in assay [2] it was 210 nM.
Regarding `O=C(/C=C/c1ccc(F)c(Br)c1)N1CCC(O)(C(O)CN2CCC(c3c[nH]c4ccccc34)CC2)CC1` (stereo not drawn) [Compound 80], the IC50 at CCR2 came out at 200 nM; in assay [1] (setting [3]) it was 6 nM; in assay [2] it was 90 nM.
For `O=C(/C=C/c1ccc(Cl)c(Cl)c1)N1CCC(C(O)CN2CCC(c3nc4ccccc4[nH]3)CC2)CC1` (stereo not drawn) [Compound 85], in that order: 150 nM, 6 nM and 40 nM.
In the case of `O=C(/C=C/c1cc(F)c(F)c(F)c1)N1CCC(C(O)CN2CCC(c3nc4ccccc4[nH]3)CC2)CC1` (stereo not drawn) [Compound 86], the figures for the IC50 (at CCR2; in assay [1] (setting [3]); in assay [2]) were 80 nM, 70 nM and 50 nM, respectively.
Consider `COc1ccc(C2CCN(CC(O)C3(O)CCN(C(=O)/C=C/c4cc(F)c(F)c(F)c4)CC3)CC2)cc1` (stereo not drawn) [Compound 88], for which the IC50 at CCR2 came to 170 nM; in assay [1] (setting [3]) it was 980 nM; in assay [2] it was 30 nM.
With `COc1ccc(C2CCN(CC(O)C3(O)CCN(C(=O)/C=C/c4ccc(F)c(F)c4)CC3)CC2)cc1` (stereo not drawn) [Compound 93], the values for the IC50 (at CCR2; in assay [1] (setting [3]); in assay [2]) were 310 nM, 9200 nM and 120 nM, respectively.
For `COc1ccc(C2CCN(CC(O)C3(O)CCN(C(=O)/C=C/c4cc(F)cc(F)c4)CC3)CC2)cc1` (stereo not drawn) [Compound 94], in that order: 350 nM, 900 nM and 100 nM.
For `COc1ccc(C2CCN(CC(O)C3CCN(C(=S)Nc4cc(F)cc(F)c4)CC3)CC2)cc1` (stereo not drawn) [Compound 107, 4-{1-hydroxy-2-[4-(4-methoxy-phenyl)-piperidin-1-yl]-ethyl}-piperidine-1-carbothioic acid (3,5-difluoro-phenyl)-amide] the same measures were 290 nM, 4300 nM and 40 nM.
On to `COc1ccc(C2CCN(CC(O)C3CCN(C(=S)Nc4ccc(Br)c(F)c4)CC3)CC2)cc1` (stereo not drawn) [Compound 110, 4-{1-hydroxy-2-[4-(4-methoxy-phenyl)-piperidin-1-yl]-ethyl}-piperidine-1-carbothioic acid (4-bromo-3-fluoro-phenyl)-amide], for which the IC50 on CCR2 was found to be 90 nM; in assay [1] (THP-1 cells), 4300 nM; in assay [2], 70 nM.
Turning to `O=C(/C=C/c1cc(F)c(F)c(F)c1)N1CCC(O)(C(O)CN2CCC(c3ccc(F)cc3)CC2)CC1` (stereo not drawn) [Compound 128], the half-inhibitory concentration (IC50) came out at 110 nM on CCR2, 1900 nM in assay [1] (setting [3]) and 300 nM in assay [2].
For the compound `O=C(/C=C/c1cc(F)cc(F)c1)N1CCC(O)(C(O)CN2CCC(c3ccc(F)cc3)CC2)CC1` (stereo not drawn) [Compound 130], the results for the half-inhibitory concentration (IC50) (on CCR2; in assay [1] (setting [3]); in assay [2]) were 100 nM, 2400 nM and 190 nM, respectively.
Turning to `O=C(/C=C/c1cc(F)c(F)c(F)c1)N1CCC(O)(C(O)CN2CCC(c3ccc(C(F)(F)F)cc3)CC2)CC1` (stereo not drawn) [Compound 136], the IC50 at CCR2 came to 140 nM; in assay [1] (setting [3]) it was 210 nM; in assay [2], 150 nM.
For `O=C(/C=C/c1ccc(F)c(F)c1)N1CCC(O)(C(O)CN2CCC(c3ccc(C(F)(F)F)cc3)CC2)CC1` (stereo not drawn) [Compound 137] the same measures were 255 nM, 1300 nM and 170 nM.
On to `O=C(/C=C/c1cc(F)cc(F)c1)N1CCC(O)(C(O)CN2CCC(c3ccc(C(F)(F)F)cc3)CC2)CC1` (stereo not drawn) [Compound 138], for which the values for the half-maximal inhibitory concentration (IC50) (on CCR2; in assay [1] (setting [3]); in assay [2]) were 210 nM, 810 nM and 60 nM, respectively.
As for `O=C(Nc1cc(F)cc(F)c1)N1CCC(O)(C(O)CN2CCC(c3ccc(C(F)(F)F)cc3)CC2)CC1` (stereo not drawn) [Compound 142, 4-hydroxy-4-{1-hydroxy-2-[4-(4-trifluoromethyl-phenyl)-piperidin-1 yl]-ethyl}-piperidine-1-carboxylic acid (3,5-difluoro-phenyl)-amide], the IC50 (on CCR2; in assay [2]) was 260 nM in each case. For the same compound, the inhibition (usually how much of the control response was suppressed) at 25 µM in assay [1] (Homo sapiens, THP-1, test concentration of 25 μM, given where an IC50 value was not obtained, read-out: Inhibition of MCP-1 Induced Calcium Ion Influx, percent inhibition) stood at 68%.
As for `O=C(/C=C/c1cc(Cl)cc(Cl)c1)N1CCC(O)(C(O)CN2CCC(c3c[nH]c4ccc(N5CCOCC5)cc34)CC2)CC1` (stereo not drawn) [Compound 151], the IC50 at CCR2 is 40 nM; in assay [1] (setting [3]), 510 nM; in assay [2] it was 160 nM.
`O=C(/C=C/c1cc(F)c(F)c(F)c1)N1CCC(O)(C(O)CN2CCC(c3c[nH]c4ccc(F)cc34)CC2)CC1` (stereo not drawn) [Compound 155]: the 50% inhibitory concentration (IC50) on CCR2 worked out at 100 nM; in assay [1] (setting [3]), 660 nM; in assay [2], 180 nM.
With `O=C(/C=C/c1ccc(F)c(F)c1)N1CCC(O)(C(O)CN2CCC(c3c[nH]c4ccc(F)cc34)CC2)CC1` (stereo not drawn) [Compound 156], the IC50 came to 120 nM on CCR2, 4000 nM in assay [1] (setting [3]) and 360 nM in assay [2].
With `O=C(/C=C/c1cc(F)cc(F)c1)N1CCC(O)(C(O)CN2CCC(c3c[nH]c4ccc(F)cc34)CC2)CC1` (stereo not drawn) [Compound 157], the IC50 on CCR2 was 150 nM; in assay [1] (setting [3]), 1900 nM; in assay [2], 120 nM.
As to `O=C(/C=C/c1cc(F)c(F)c(F)c1)N1CCC(O)(C(O)CN2CCC(c3ccc(Cl)cc3)CC2)CC1` (stereo not drawn) [Compound 163], the half-inhibitory concentration (IC50) on CCR2 was 0.2 nM; in assay [1] (setting [3]), 120 nM; in assay [2] it was 5 nM.

Source of the values: patent publication US20070197590A1, “SUBSTITUTED DIPIPERIDINE CCR2 ANTAGONISTS” (priority 2006, published 2007).
